From patent US9227852B2, “Apparatus, systems, and methods for water treatment” (McWong Environmental Technology, priority 2008, dated 2016) come the findings set out here.

A short description of assay [1]: Bench-scale ozone / AOP treatment of tertiary filtered effluent: Trimethoprim. The settings on record: Ozone Only Mode, ozone dose of 5 mg/l, FIG. 34.
The nature of assay [2]: Bench-scale ozone / AOP treatment of tertiary filtered effluent: Sulfamethoxazole. The settings on record: Ozone Only Mode, ozone dose of 5 mg/l, FIG. 33.
The nature of assay [3]: Bench-scale ozone / AOP treatment of tertiary filtered effluent: Triclosan. The settings on record: Ozone Only Mode, ozone dose of 5 mg/l, FIG. 30.
The nature of assay [4]: Destruction of trace organic compounds in waste water: nonylphenol. Further details: dose or concentration left out as unconfirmed. The settings on record: ozone dose of about, FIG. 20. How it is done:
(§1) While ozone and ozone/peroxide methods are know to reduce the levels of various organic compounds commonly found in waste water, the efficacy of the present apparatus, systems, and methods for removing nonylphenol (NP), bisphenol-A (BPA), and triclosan (TCS) from waste water was also tested.

Assay [5] can be described thus: Comparison of treatment methods for removing MIB from water (Table 4, FIG. 6).
For a further assay, the system named is MS2 coliphage. The assay is classed as cell-based. The settings on record: for effect of peroxide addition on virus / MS2 coliphage disinfection: at the ozone and peroxide doses tested, media filtered or microfiltered water.
A short description of assay [6]: Bench-scale ozone / AOP treatment of tertiary filtered effluent: Gemifibrozil. The settings on record: Ozone Only Mode, ozone dose of less than or equal to 5 mg/l, FIG. 28.
Assay [7] can be described thus: Bench-scale ozone / AOP treatment of tertiary filtered effluent: Ibuprofen. The settings on record: Ozone Only Mode.
Assay [8] can be described thus: Bench-scale ozone / AOP treatment of tertiary filtered effluent: Fluoxetine. The settings on record: Ozone Only Mode, ozone dose of 5 mg/l, FIG. 32.
A short description of assay [9]: Bench-scale ozone / AOP treatment of tertiary filtered effluent: Caffeine. The settings on record: Ozone Only Mode, ozone dose of 5 mg/l, FIG. 31.
For another assay, the system named is E. Coli. The assay is described as follows: Bench-scale ozone / AOP disinfection of tertiary filtered effluent: E. Coli. The assay is classed as cell-based. The settings on record: Ozone Only Mode, ozone dose of less than or equal to 5 mg/l.
A short description of assay [10]: Bench-scale ozone / AOP treatment of tertiary filtered effluent: Estradiol Equivalents (B-screen bioassay). The settings on record: Ozone Only Mode, ozone dose of less than or equal to 5 mg/l, FIG. 27.
The nature of assay [11]: Destruction of trace organic compounds in waste water: bisphenol-A. The settings on record: FIG. 20. Details: dose or concentration left out as unconfirmed. How it is done:
as §1

A further assay has as its system total coliform. The assay is classed as cell-based, coliforms.
The nature of assay [12]: Destruction of trace organic compounds in waste water: triclosan. The settings on record: FIG. 20. Further details: dose or concentration left out as unconfirmed. How it is done: as §1
For the next assay, the system named is poliovirus. The assay is classed as cell-based.
The nature of assay [13]: Comparison of treatment methods for removing geosmin from water (Table 4, FIG. 6).

Like-named read-outs stand apart in the source and are kept apart here.

In the case of `O=[O+][O-]` [Ozone], the “maximum removal of Trimethoprim” value in [1] was above 99%. Also, the “maximum removal of Sulfamethoxazole” value in assay [2] is above 99.9%. In addition, in assay [3], the “maximum removal of Triclosan” value is given as above 76%. Also, in assay [4], the “reduction of the levels of NP” value is “substantially reduce”. Moreover, the “Removal (%) MIB” value in [5] (feed rate 2.5 mg/L) came out at 77%. In addition, the “reduction in MIB” value in assay [5] (ozone 3 mg/L, FIG. 6) is around 40%. In the assay with MS2 coliphage, the “Log Reduction of MS2 as a function of ozone dose (equation 2)” value was 0.4045×Ozone Dose+0.1823, the “contact time sufficient to achieve a 6.5-log disinfection of MS2 coliphage” value is listed as “about 10 seconds”, the “disinfection of MS2 coliphage achieved” value was 6.5 log and the “ozone dose required to achieve a 6.5-log disinfection of MS2 coliphage” value is listed as “greater than 5 ppm”. Besides, in the assay with MS2 coliphage, the “ozone required to achieve a 6.5-log disinfection of MS2 coliphage, relative to media-filtered water” value is reported as “slightly lower”. For the same molecule, in assay [6], the “maximum removal of Gemifibrozil” value is reported as above 99%. Besides, the “removal of Ibuprofen” value in assay [7] (ozone dose of 5 mg/l, FIG. 29) is on record as around 77%. The “maximum removal of Ibuprofen” value in [7] (ozone dose of less than or equal to 10 mg/l) is recorded as above 98%. Moreover, the “maximum removal of Fluoxetine” value in assay [8] is reported as above 97%. Further, in assay [9], the “maximum removal of Caffeine” value is given as above 96%. Further, the “log reduction of E. Coli” value in the assay with E. Coli is “greater than 4 log”. Also, the “E. Coli after disinfection (below the detection limit)” value in the assay with E. Coli (untreated 12,000 organism/100 ml, FIG. 37) was below 1 organism/100 ml. Besides, the “maximum removal of Estradiol Equivalents” value in assay [10] is reported as above 97%. The “reduction of the levels of BPA” value in [11] is listed as “substantially reduce”. Also, in the assay with total coliform, the “levels of coliforms after treatment” value was “non-detectable”, the “ozone dose at which non-detectable levels of total coliform were achieved” value is 4.5 mg/L and the “total coliform after treatment” value is recorded as “less than 2.2 MPN/100 mL”. For the same molecule, the “reduction of the levels of TCS” value in assay [12] was “substantially reduce”. In the assay on poliovirus, the “Log Reduction of Poliovirus as a function of ozone dose (equation 1)” value was 0.3427×Ozone Dose−0.3621 and the “disinfection of poliovirus corresponding to the 6.5-log disinfection of MS2 coliphage” value is reported as 5 log. The molecule further showed a reduction in geosmin in assay [13] of around 40%. The “Removal (%) Geosmin” value in assay [13] (feed rate 2.5 mg/L) came out at 94%.
As for `OO` [Hydrogen peroxide], the “Removal (%) MIB” value in assay [5] (feed rate 1 mg/L) came to 72%. Moreover, the “effect of peroxide addition on virus / MS2 coliphage disinfection” value is “did not impact disinfection efficacy” with MS2 coliphage (listed as Peroxide), “did not interfere” in the assay on MS2 coliphage (listed as hydrogen peroxide) and “did not significantly affect disinfection” with MS2 coliphage (listed as peroxide). Also, the “Removal (%) Geosmin” value in [13] (feed rate 1 mg/L) is on record as 50%.
